Data set [1] has as its system MCF-7 (breast cancer cell line). Kind of data set: In vitro cytotoxicity, MTT assay, MCF-7. In kind it is cell-based, human. How it is done:
(§1) The resultant compounds were tested for their in vitro cytotoxic activity by MTT assay against breast (MCF-7), cervical (SiHa), and prostate (PC-3) cancer cell lines, and the human embryonic kidney cell line (HEK). […] Subsequently, SAR studies were done by investigating the effect of substituents on cytotoxic activity.
(§2) Human cervical cancer cell line SiHa, human breast cancer cell line MCF-7, human prostate cancer cell line PC-3, and human embryonic kidney HEK-293 cells were procured from the National Centre for Cell Sciences (NCCS) Pune, India. In this experiment, antibiotics (100 units/mL penicillin and 100 mg L^−1 streptomycin were grown as a monolayer culture in Dulbecco’s modified Eagle’s medium containing 10% fetal bovine serum) were cultured in a humidified atmosphere of 5% CO2 at 37 °C in T-75 flasks and subcultured twice a week.
(§3) The cytotoxic effects of the selected compounds were evaluated by MTT assay on the above-mentioned cell lines. Initially, 2 × 10^4 cells/well were seeded into 96-well plates (150 µL/well) in triplicates and allowed to grow. The cells were incubated for 24 h and subsequently treated with varying concentrations of the compounds. After 48 h, the cells were incubated with 20 μL of MTT (5 mg/mL in PBS) in a fresh medium for 4 h at 37 °C. MTT is a metabolic substrate that is reduced to give formazan crystals, which were solubilized in DMSO (150 µL/well) and analyzed by reading the absorbance at 540 nm after 15 min of the incubation period on the iMark Microplate Reader (Bio-Rad). Percentage viability and IC50 values were used to determine the relative absorbance of treated versus control (untreated) cells.

Data set [2] deals with SiHa (cervical cancer cell line). Kind of data set: In vitro cytotoxicity, MTT assay, SiHa. To be noted: Homo sapiens, 48 h, read-out: IC50 SiHa. It counts as cell-based. How it is done:
as §1, §2, §3

In data set [3] the test system is PC-3 (prostate cancer cell line). The data set is described as follows: In vitro cytotoxicity, MTT assay, PC-3. It counts as cell-based. To be noted: Homo sapiens, 48 h, read-out: IC50 PC3. On the procedure: as §1, §2, §3
In data set [4] the test system is HEK-293 (human embryonic kidney cells). Kind of data set: In vitro cytotoxicity, MTT assay, HEK-293 normal cells. In kind it is cell-based. To be noted: for IC50: read-out: IC50 HEK-293. How it is done:
as §1, §2, §3
Background: Tetrazolium assays rely on reduction of a dye to a coloured formazan, in cell work by metabolically active cells.

Data set [5] addresses tubulin (purified brain tubulin) (Sus scrofa, UniProt P02550+P02554). Kind of data set: In vitro tubulin polymerization assay (fluorescence). To be noted: for inhibition at 10 µM: read-out: % Inhibition of Tubulin Polymerization at 10 µM; for inhibition at 3 µM: read-out: % Inhibition of Tubulin Polymerization. In kind it is biochemical. How it is done: The α and β tubulin subunits are recognized by heterodimers and self-assemble into a stable microtubule in a time-dependent manner. Assessment of the inhibitory effect of new pyrazolic chalcone conjugates on tubulin polymerization was also carried out. The progression of tubulin polymerization was thus examined by monitoring the increase in the fluorescence intensity at 450 nm (excitation wavelength of 360 nm) in a 384-plate for 1 h at 37 °C with and without the conjugate at 10 µM concentration. CA-4 (6 µM) and Vincristine (3 µM) were used as the positive control, whereas paclitaxel (3 µM) was used as the negative control.
Tubulin polymerization is a dynamic process by enhancement of fluorescence intensity due to the combination of a fluorescent reporter into the microtubules as polymerization occurs. Tubulin polymerization was performed by using a purified brain tubulin polymerization kit purchased from Cytoskeleton (BK110P, Denver, CO, USA). The tubulin polymerization assay was monitored by the increase in fluorescence over a 60 min period at 37 °C, with excitation at 360 nm and emission at 450 nm. The final buffer concentration for tubulin polymerization contained 80 mM PIPES, pH 6.9; 2 mM MgCl2; 0.5 mM EGTA; […]; and 15% glycerol. Firstly, 5 µL of the test compounds (final concentration of 10 µM) was added and then warmed to 37 °C for 1 min. The reaction was initiated by adding 50 µL of the tubulin reaction mix as specified for 6 min.

Where [6] appears, read: Homo sapiens, MCF7, MTT, 48 h, breast cancer, read-out: IC50 MCF-7.
[7] abbreviates: HEK293, MTT, 48 h, human normal cell line.

Molecules are shown by their SMILES. Like-named read-outs stand apart in the source and are kept apart here.

Chain of tubulin (purified brain tubulin) (P02550 whole entry): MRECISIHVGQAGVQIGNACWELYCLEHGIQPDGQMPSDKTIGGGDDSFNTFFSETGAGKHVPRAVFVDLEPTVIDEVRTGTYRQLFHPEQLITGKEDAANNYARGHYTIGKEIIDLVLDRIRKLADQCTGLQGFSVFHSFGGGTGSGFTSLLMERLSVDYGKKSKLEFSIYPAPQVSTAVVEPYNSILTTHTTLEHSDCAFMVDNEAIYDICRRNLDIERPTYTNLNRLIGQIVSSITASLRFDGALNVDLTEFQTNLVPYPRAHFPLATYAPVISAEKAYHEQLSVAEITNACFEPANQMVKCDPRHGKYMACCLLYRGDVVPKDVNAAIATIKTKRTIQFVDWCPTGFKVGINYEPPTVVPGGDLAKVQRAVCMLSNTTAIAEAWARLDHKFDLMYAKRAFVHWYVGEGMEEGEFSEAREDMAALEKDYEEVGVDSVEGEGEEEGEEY
Chain of tubulin (purified brain tubulin) (P02554 whole entry): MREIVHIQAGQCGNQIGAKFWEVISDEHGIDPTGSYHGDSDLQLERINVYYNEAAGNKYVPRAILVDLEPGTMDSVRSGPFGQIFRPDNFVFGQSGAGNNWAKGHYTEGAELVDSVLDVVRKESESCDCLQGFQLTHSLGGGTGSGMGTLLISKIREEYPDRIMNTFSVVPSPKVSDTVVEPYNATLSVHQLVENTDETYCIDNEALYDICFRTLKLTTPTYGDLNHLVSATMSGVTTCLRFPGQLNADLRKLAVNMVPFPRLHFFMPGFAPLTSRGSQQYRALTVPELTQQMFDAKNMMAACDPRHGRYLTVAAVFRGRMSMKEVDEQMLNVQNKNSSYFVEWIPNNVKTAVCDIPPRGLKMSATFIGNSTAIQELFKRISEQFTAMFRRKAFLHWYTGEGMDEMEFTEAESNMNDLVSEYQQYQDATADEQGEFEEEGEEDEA

What is called IC50 is the midpoint of a concentration-inhibition curve. With `COc1ccc(/C=C\c2cc(OC)c(OC)c(OC)c2)cc1O` [Combretastatin A-4, reference compound], the concentration for half-maximal inhibition (IC50) in data set [1] (Homo sapiens, MCF7, 48 h, read-out: IC50 MCF-7, MTT, 48 h, breast cancer) is 4.12 to 5.23 µM; in data set [1] (read-out: IC50 MCF-7, MTT, 48 h, breast cancer, listed as CA-4), 4.12 ± 0.38 µM; in data set [2], 5.23 ± 0.85 µM; in data set [3], 3.86 ± 0.39 µM; in data set [4] (Homo sapiens, HEK293, 48 h), 19.2 ± 1.65 µM.

One may read the melting point as the temperature of the solid-liquid transition. Consider `O=C(/C=C/c1cn(-c2ccccc2)nc1-c1ccc(OCc2ccccc2)cc1)c1ccccc1Cl` [Compound 5b, (E)-3-(3-(4-(benzyloxy)phenyl)-1-phenyl-1H-pyrazol-4-yl)-1-(2-chlorophenyl)prop-2-en-1-one], for which the melting point lay within 182 to 184 °C.

Molecule `O=C(/C=C/c1cn(-c2ccccc2)nc1-c1ccc(OCc2ccccc2)cc1)c1cccc([N+](=O)[O-])c1` [Compound 5c, (E)-3-(3-(4-(benzyloxy)phenyl)-1-phenyl-1H-pyrazol-4-yl)-1-(3-nitrophenyl)prop-2-en-1-one] showed a melting point of 203 to 205 °C.

As usually defined, the inhibition is the relative decrease from the control value, in per cent. Take `O=C(/C=C/c1cn(-c2ccccc2)nc1-c1ccc(OCc2ccccc2)cc1)c1cccc(O)c1` [Compound 5d, (E)-3-(3-(4-(benzyloxy)phenyl)-1-phenyl-1H-pyrazol-4-yl)-1-(3-hydroxyphenyl)prop-2-en-1-one]: the melting point lay within 184 to 186 °C. Further, the inhibition at 10 µM in data set [5] was 49.8%. In addition, in data set [1] (setting [6]), the IC50 was 4.1 ± 1.12 µM. Besides, in data set [2] (MTT, cervical cancer), the IC50 amounted to 4.85 ± 0.89 µM. Moreover, the concentration for half-maximal inhibition (IC50) in data set [3] (MTT, prostate cancer) is 2.97 ± 0.88 µM. The half-inhibitory concentration (IC50) in data set [4] (setting [7]) is more than 50 µM.

Consider `O=C(/C=C/c1cn(-c2ccccc2)nc1-c1ccc(OCc2ccccc2)cc1)c1ccc(Cl)cc1` [Compound 5e, (E)-3-(3-(4-(benzyloxy)phenyl)-1-phenyl-1H-pyrazol-4-yl)-1-(4-chlorophenyl)prop-2-en-1-one], for which, in data set [5], the inhibition at 10 µM is 48.4%. Further, the IC50 was 11.5 ± 1.62 µM in data set [1] (setting [6]); 12.3 ± 1.32 µM in data set [2] (MTT, cervical cancer); 9.68 ± 1.42 µM in data set [3] (MTT, prostate cancer); more than 50 µM in data set [4] (setting [7]).

As for `O=C(/C=C/c1cn(-c2ccccc2)nc1-c1ccc(OCc2ccccc2)cc1)c1ccc(F)cc1` [Compound 5f, (E)-3-(3-(4-(benzyloxy)phenyl)-1-phenyl-1H-pyrazol-4-yl)-1-(4-fluorophenyl)prop-2-en-1-one], the melting point fell in the range of 168 to 170 °C.

As for `O=C(/C=C/c1cn(-c2ccccc2)nc1-c1ccc(OCc2ccccc2)cc1)c1ccc(Br)cc1` [Compound 5g, (E)-3-(3-(4-(benzyloxy)phenyl)-1-phenyl-1H-pyrazol-4-yl)-1-(4-bromophenyl)prop-2-en-1-one], the melting point fell in the range of 178 to 180 °C.

With `O=C(/C=C/c1cn(-c2ccccc2)nc1-c1ccc(OCc2ccccc2)cc1)c1ccc(O)cc1` [Compound 5h, (E)-3-(3-(4-(benzyloxy)phenyl)-1-phenyl-1H-pyrazol-4-yl)-1-(4-hydroxyphenyl)prop-2-en-1-one], the melting point is 167 to 169 °C.

As for `O=C(/C=C/c1cn(-c2ccccc2)nc1-c1ccc(OCc2ccccc2)cc1)c1ccc([N+](=O)[O-])cc1` [Compound 5i, (E)-3-(3-(4-(benzyloxy)phenyl)-1-phenyl-1H-pyrazol-4-yl)-1-(4-nitrophenyl)prop-2-en-1-one], the melting point is 223 to 225 °C. Also, the inhibition at 10 µM in data set [5] was found to be 28.4%. Also, the IC50 in data set [1] (setting [6]) turned out to be 42.7 ± 0.34 µM. Besides, the IC50 in data set [2] (MTT, cervical cancer) worked out at 34.5 ± 0.9 µM. For the same molecule, in data set [3] (MTT, prostate cancer), the IC50 was 13.1 ± 1.6 µM. For the same molecule, in data set [4] (setting [7]), the half-inhibitory concentration (IC50) stood at 45.2 ± 2.6 µM.

In the case of `Cc1ccc(C(=O)/C=C/c2cn(-c3ccccc3)nc2-c2ccc(OCc3ccccc3)cc2)cc1` [Compound 5j, (E)-3-(3-(4-(benzyloxy)phenyl)-1-phenyl-1H-pyrazol-4-yl)-1-(p-tolyl)prop-2-en-1-one], the melting point lay within 205 to 207 °C.

In the case of `COc1ccc(C(=O)/C=C/c2cn(-c3ccccc3)nc2-c2ccc(OCc3ccccc3)cc2)cc1` [Compound 5k, (E)-3-(3-(4-(benzyloxy)phenyl)-1-phenyl-1H-pyrazol-4-yl)-1-(4-methoxyphenyl)prop-2-en-1-one], the melting point fell in the range of 187 to 189 °C. Moreover, in data set [5], the inhibition at 10 µM came to 32.8%. In data set [1] (setting [6]), the IC50 was 7.23 ± 0.74 µM. Moreover, the IC50 in data set [2] (MTT, cervical cancer) was determined as 5.65 ± 0.71 µM. Besides, in data set [3] (MTT, prostate cancer), the IC50 was 5.45 ± 0.94 µM. Moreover, the half-maximal inhibitory concentration (IC50) in data set [4] (setting [7]) is more than 50 µM.

As to `O=C(/C=C/c1cn(-c2ccccc2)nc1-c1ccc(OCc2ccccc2)cc1)c1ccc(Cl)c(Cl)c1` [Compound 5l, (E)-3-(3-(4-(benzyloxy)phenyl)-1-phenyl-1H-pyrazol-4-yl)-1-(3,4-dichlorophenyl)prop-2-en-1-one], the melting point lay within 243 to 245 °C. The inhibition at 10 µM in data set [5] is 55.2%. In addition, the IC50 in data set [1] (setting [6]) was determined as 8.23 ± 1.45 µM. The IC50 in data set [2] (MTT, cervical cancer) stood at 11.7 ± 2.83 µM. In data set [3] (MTT, prostate cancer), the IC50 came to 5.84 ± 1.65 µM. Further, the half-inhibitory concentration (IC50) in data set [4] (setting [7]) is more than 50 µM.

Consider `O=C(/C=C/c1cn(-c2ccccc2)nc1-c1ccc(OCc2ccccc2)cc1)c1ccc(Cl)cc1Cl` [Compound 5m, (E)-3-(3-(4-(benzyloxy)phenyl)-1-phenyl-1H-pyrazol-4-yl)-1-(2,4dichlorophenyl)prop-2-en-1-one], for which the melting point lay within 192 to 194 °C. In addition, the inhibition at 10 µM in data set [5] worked out at 33.8%. In addition, the IC50 in data set [1] (setting [6]) is 17.1 ± 2.25 µM. Besides, the 50% inhibitory concentration (IC50) in data set [2] (MTT, cervical cancer) is 6.46 ± 1.52 µM. Moreover, in data set [3] (MTT, prostate cancer), the IC50 amounted to 11.2 ± 1.44 µM. In addition, the IC50 in data set [4] (setting [7]) was more than 50 µM.

Consider `O=C(/C=C/c1cn(-c2ccccc2)nc1-c1ccc(OCc2ccccc2)cc1)c1ccc(O)cc1O` [Compound 5n, (E)-3-(3-(4-(benzyloxy)phenyl)-1-phenyl-1H-pyrazol-4-yl)-1-(2,4-dihydroxyphenyl)prop-2-en-1-one], for which the melting point is 176 to 178 °C. Also, the inhibition at 10 µM in data set [5] is 47.6%. Also, the IC50 in data set [1] (setting [6]) worked out at 6.98 ± 1.12 µM. In addition, the IC50 in data set [2] (MTT, cervical cancer) came to 3.6 ± 0.45 µM. Further, the half-maximal inhibitory concentration (IC50) in data set [3] (MTT, prostate cancer) stood at 3.56 ± 0.63 µM. In addition, the concentration for half-maximal inhibition (IC50) in data set [4] (setting [7]) was more than 50 µM.

On to `COc1ccc(C(=O)/C=C/c2cn(-c3ccccc3)nc2-c2ccc(OCc3ccccc3)cc2)cc1OC` [Compound 5o, (E)-3-(3-(4-(benzyloxy)phenyl)-1-phenyl-1H-pyrazol-4-yl)-1-(3,4-dimethoxyphenyl)prop-2-en-1-one], for which the melting point was 206 to 208 °C. Further, in data set [5], the inhibition at 10 µM was found to be 66.4%. Also, in data set [1] (setting [6]), the IC50 was 2.13 ± 0.8 µM. For the same molecule, the IC50 in data set [2] (MTT, cervical cancer) is 4.34 ± 0.98 µM. In data set [3] (MTT, prostate cancer), the 50% inhibitory concentration (IC50) came out at 4.46 ± 0.53 µM. The half-inhibitory concentration (IC50) in data set [4] (setting [7]) was more than 50 µM. For the same molecule, in data set [4] (in words), the “toxicity to the HEK cells” value is “did not exhibit significant toxicity”.

As to `COc1ccc(C(=O)/C=C/c2cn(-c3ccccc3)nc2-c2ccc(OCc3ccccc3)cc2)c(Br)c1` [Compound 5q, (E)-3-(3-(4-(benzyloxy)phenyl)-1-phenyl-1H-pyrazol-4-yl)-1-(2-bromo-4-methoxyphenyl)prop-2-en-1-one], the melting point lay in the range of 174 to 176 °C.

On to `CC(=O)O[C@H]1C(=O)[C@@]2(C)[C@H]([C@H](OC(=O)c3ccccc3)[C@]3(O)C[C@H](OC(=O)[C@H](O)[C@@H](NC(=O)c4ccccc4)c4ccccc4)C(C)=C1C3(C)C)[C@]1(OC(C)=O)CO[C@@H]1C[C@@H]2O` [Paclitaxel, paclitaxel, reference compound], for which the inhibition at 3 µM in data set [5] was -25.7%.

In the case of `CC[C@]1(O)C[C@H]2CN(CCc3c([nH]c4ccccc34)[C@@](C(=O)OC)(c3cc4c(cc3OC)N(C=O)[C@H]3[C@@](O)(C(=O)OC)[C@H](OC(C)=O)[C@]5(CC)C=CCN6CC[C@]43[C@@H]65)C2)C1` [Vincristine, reference compound], in data set [5], the inhibition at 3 µM is 75.5%.

The record behind these values is publication PMC8954831, “Design, Synthesis, Molecular Docking, and Biological Evaluation of Pyrazole Hybrid Chalcone Conjugates as Potential Anticancer Agents and Tubulin Polymerization Inhibitors” (Pharmaceuticals, 2022).
